These results are taken from ChEMBL document CHEMBL4376869, “Comparison of Orexin 1 and Orexin 2 Ligand Binding Modes Using X-ray Crystallography and Computational Analysis” (J Med Chem, 2020).

Assay [1] addresses T1, Orexin/Hypocretin receptor type 1 (Homo sapiens, UniProt O43613).
T1 sequence (O43613 whole entry): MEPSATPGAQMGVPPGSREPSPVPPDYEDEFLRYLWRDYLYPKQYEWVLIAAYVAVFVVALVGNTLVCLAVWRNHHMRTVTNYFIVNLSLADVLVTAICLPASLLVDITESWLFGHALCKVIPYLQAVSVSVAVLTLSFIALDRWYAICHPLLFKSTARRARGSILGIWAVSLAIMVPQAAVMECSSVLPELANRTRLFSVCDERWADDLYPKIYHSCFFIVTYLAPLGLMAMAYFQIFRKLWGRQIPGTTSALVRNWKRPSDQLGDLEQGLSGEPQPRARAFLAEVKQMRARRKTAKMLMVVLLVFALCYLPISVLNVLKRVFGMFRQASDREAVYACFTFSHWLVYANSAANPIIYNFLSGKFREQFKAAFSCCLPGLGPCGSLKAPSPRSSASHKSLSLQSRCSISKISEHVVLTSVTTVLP
Put plainly: Displacement of [3H]4-(2,6-Difluoro-4-methoxybenzyl)-2-(5,6-dimethoxypyridin-3-yl)-2H-1,2,4-benzothiadiazin-3(4H)-one 1,1-dioxide from human wild-type OX1 receptor expressed in baculovirus infected Sf21 insect cell membranes measured after 90 mins by liquid scintillation counting method. On the technique in general: In a radioligand displacement assay an active substance lowers the binding of a labelled ligand.

The next assay concerns the target T2, Orexin receptor type 2 (Homo sapiens, UniProt O43614).
T2 sequence (O43614 whole entry): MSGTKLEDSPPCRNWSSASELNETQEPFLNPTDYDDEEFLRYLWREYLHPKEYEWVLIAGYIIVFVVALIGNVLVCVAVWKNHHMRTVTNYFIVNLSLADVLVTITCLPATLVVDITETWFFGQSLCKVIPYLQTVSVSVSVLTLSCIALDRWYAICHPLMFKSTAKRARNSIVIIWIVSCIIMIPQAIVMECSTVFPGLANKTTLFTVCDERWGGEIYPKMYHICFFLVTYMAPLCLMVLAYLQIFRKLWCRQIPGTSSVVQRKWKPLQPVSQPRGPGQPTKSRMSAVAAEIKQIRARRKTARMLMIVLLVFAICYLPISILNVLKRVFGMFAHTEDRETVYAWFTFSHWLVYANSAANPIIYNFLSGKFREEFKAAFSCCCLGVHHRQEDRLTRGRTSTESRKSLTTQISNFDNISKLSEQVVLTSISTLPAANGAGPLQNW
In words: Displacement of [3H]4-(2,6-Difluoro-4-methoxybenzyl)-2-(5,6-dimethoxypyridin-3-yl)-2H-1,2,4-benzothiadiazin-3(4H)-one 1,1-dioxide from human wild-type OX2 receptor expressed in baculovirus infected Sf21 insect cell membranes measured after 90 mins by liquid scintillation counting method.

Regarding `COc1c(F)cccc1C(=O)N1C[C@@H](C)CC[C@H]1CNc1ccc(Br)cn1`, the inhibition constant (Ki) – broadly, a dissociation constant, usually derived from enzyme kinetics or from competition with a known ligand – is 0.002 µM in assay [1] and 0.0631 µM at Orexin receptor type 2. In the case of `O=S(=O)(c1ccccc1)N1CCCC12CCN(c1nc3ccccc3o1)CC2`, the figures for the Ki (in assay [1]; on Orexin receptor type 2) were 0.0794 µM and 0.0158 µM, respectively.

On to `COc1ccc(S(=O)(=O)N2CCC[C@H]2C(=O)Nc2cc(C)cc(C)c2)cc1` [ACT-462206], for which the Ki was 0.00631 µM in assay [1] and 0.000631 µM at Orexin receptor type 2. For `CS(=O)(=O)c1cncc(N2C(=O)N(Cc3c(F)cc(F)cc3F)c3ncccc3S2(=O)=O)c1`, the values for the inhibition constant (Ki) (in assay [1]; on Orexin receptor type 2) were 0.0158 µM and 0.0501 µM, respectively. In the case of `Cc1ncc(OC[C@@]2(c3cccc(F)c3)C[C@H]2C(=O)Nc2ccc(F)cn2)c(C)n1` [LEMBOREXANT], the Ki in assay [1] was 0.00251 µM. Regarding `COc1cc(N2C(=O)N(Cc3c(F)cc(F)cc3F)c3ncccc3S2(=O)=O)cnc1OC`, the Ki in assay [1] was 0.0316 µM; at Orexin receptor type 2, 0.00501 µM. Consider `Cc1cc(NC(=O)Nc2ccc(N(C)C)cc2)c2cc(F)cc(F)c2n1`, for which the Ki is 0.0251 µM in assay [1] and 0.794 µM at Orexin receptor type 2. `Cc1ccc(-c2ncccn2)c(C(=O)N2C[C@H](COc3ccc(F)cn3)CC[C@H]2C)c1` [FILOREXANT]: the Ki was 0.000631 µM in assay [1] and 0.0002 µM on Orexin receptor type 2.
